# Experimental data taken from patent US11622970B2, “BCL-2 inhibitors and their use as pharmaceuticals” (PRELUDE THERAPEUTICS INCORPORATED, priority 2020, dated 2023).
# pIC50: −log10 of the molar value.
# Molecular target: BCL-2 recombinant protein (Homo sapiens, UniProt P10415)
# Experiment: Cell free Bcl-2:Bak affinity assay (Bcl-2 Bak), HTRF competition of FAM-Bak peptide
# Type: binding
# Conditions: 1 μM compound, 4 nM BCL-2 recombinant protein, 100 nM FAM-Bak, read-out: potency (% inhibition at 1 μM)
# Procedure: Biological Assays: Cell Free Bcl-2:Bak Affinity Assay (Bcl-2 Bak)
# The assay is based on the competition of fluorescently labeled peptide binding to BCL-2 and the binding is monitored by HTRF signals between anti-GST-Tb and FAM-peptide using GST-Tag BCL proteins. Testing compounds were dissolved in DMSO at 10 mM and tested in 10-concentration IC50 mode. The compounds of interest in DMSO were added in 3-fold serial dilution to each well containing 4 nM of BCL-2 recombinant protein, 20 mM K Phosphate, pH 7.5, 50 mM NaCl, 1 mM EDTA, 0.005% Triton X-100, by using acoustic technology (Labcyte echo 550), After 10 minutes incubation at room temperature, 100 nM of FAM-Bak was added and incubated for another 10 minutes before addition of Anti-GST-Tb. The plate was then sealed and further incubated at room temperature for 60 minutes in the dark before reading. Percentage of inhibition was calculated by % inhibition=100×(FDMSO−F)/(FDMSO−FPC), in which FDMSO is DMSO control and FPC is a positive control. IC50 values were determined from dose-response curve by fitting the percent inhibition against compound concentration using GraphPad Prism software.
# BCL-2 recombinant protein, sequence (P10415 whole entry): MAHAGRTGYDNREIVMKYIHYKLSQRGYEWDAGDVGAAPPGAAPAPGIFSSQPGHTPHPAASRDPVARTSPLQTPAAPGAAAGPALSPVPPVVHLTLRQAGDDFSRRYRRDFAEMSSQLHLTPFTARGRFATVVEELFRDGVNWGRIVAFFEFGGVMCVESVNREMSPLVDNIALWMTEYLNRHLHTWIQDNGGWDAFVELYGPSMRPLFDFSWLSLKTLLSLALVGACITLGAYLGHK
row,Compound,inhibition at 1 µM
1,"COCc1ccc(C(=O)NS(=O)(=O)c2ccc(N3CCN(CC4=C(c5ccc(Cl)cc5)CC(C)(C)CC4)CC3)cc2)cc1 [Example 19, N-([4-[4-[[2-(4-chlorophenyl)-4,4-dimethylcyclohexen-1-yl]methyl]piperazin-1-yl]phenyl]sulfonyl)-4-(methoxymethyl)benzamide]",50 to 90%
2,"Cn1cc(-c2nc(C(=O)NS(=O)(=O)c3ccc(N4CCN(CC5=C(c6ccc(Cl)cc6)CC(C)(C)CC5)CC4)cc3)ccc2F)ccc1=O [Example 58, N-[4-[4-[[2-(4-Chlorophenyl)-4,4-dimethylcyclohexen-1-yl]methyl]piperazin-1-yl]phenyl]sulfonyl-3-fluoro-1′-methyl-6′-oxo-1′,6′-dihydro-[2,3′-bipyridine]-6-carboxamide]",50 to 90%
3,"Cc1cc(C(=O)NS(=O)(=O)c2ccc(N3CCN(CC4=C(c5ccc(Cl)cc5)CC(C)(C)CC4)CC3)cc2)[nH]n1 [Example 14, N-([4-[4-[[2-(4-chlorophenyl)-4,4-dimethylcyclohexen-1-yl]methyl]piperazin-1-yl]phenyl]sulfonyl)-3-methyl-1H-pyrazole-5-carboxamide]",50 to 90%
4,"CC1(C)CCC(CN2CCN(c3ccc(S(=O)(=O)NC(=O)C45CC(C4)C5)cc3)CC2)=C(c2ccc(Cl)cc2)C1 [Example 7, N-([4-[4-[[2-(4-chlorophenyl)-4,4-dimethylcyclohexen-1-yl]methyl]piperazin-1-yl]phenyl]sulfonyl)bicyclo[1.1.1]pentane-1-carboxamide]",50 to 90%
5,"CC1(C)CCC(CN2CCN(c3ccc(S(=O)(=O)NC(=O)c4cccc(C(F)(F)F)n4)cc3)CC2)=C(c2ccc(Cl)cc2)C1 [Example 21, N-([4-[4-[[2-(4-chlorophenyl)-4,4-dimethylcyclohexen-1-yl]methyl]piperazin-1-yl]phenyl]sulfonyl)-6-(trifluoromethyl)pyridine-2-carboxamide]",50 to 90%
6,"CC1(C)CCC(CN2CCN(c3ccc(S(=O)(=O)NC(=O)c4ccc(F)c(-c5ccncc5)n4)cc3)CC2)=C(c2ccc(Cl)cc2)C1 [Example 61, N-[4-[4-[[2-(4-chlorophenyl)-4,4-dimethyl-cyclohexen-1-yl]methyl]piperazin-1-yl]phenyl]sulfonyl-5-fluoro-6-(4-pyridyl)pyridine-2-carboxamide]",< 50%
7,"CC1(C)CCC(CN2CCN(c3ccc(S(=O)(=O)NC(=O)c4ccc(COc5ccccc5)c([N+](=O)[O-])c4)cc3)CC2)=C(c2ccc(Cl)cc2)C1 [Example 52, N-[4-[4-[[2-(4-chlorophenyl)-4,4-dimethylcyclohexen-1-yl]methyl]piperazin-1-yl]phenyl]sulfonyl-3-nitro-4-(phenoxymethyl)benzamide]",50 to 90%

# Same assay, conditions: 10-concentration IC50 mode, 4 nM BCL-2 recombinant protein, 100 nM FAM-Bak, read-out: potency (IC50)
row,Compound,pIC50
1,"CC1(C)CCC(CN2CCN(c3ccc(S(=O)(=O)NC(=O)c4ccc(F)c(COc5ccc(Cl)cc5)c4)cc3)CC2)=C(c2ccc(Cl)cc2)C1 [Example 37, N-([4-[4-[[2-(4-chlorophenyl)-4,4-dimethylcyclohexen-1-yl]methyl]piperazin-1-yl]phenyl]sulfonyl)-3-((4-chlorophenoxy)methyl)-4-fluorobenzamide]",7.00 to 8.00
2,"CC1(C)CCC(CN2CCN(c3ccc(S(=O)(=O)NC(=O)c4ccnc5sccc45)c(Oc4cnc5[nH]ccc5c4)c3)CC2)=C(c2ccc(Cl)cc2)C1 [Example 93, N-[4-[4-[[2-(4-chlorophenyl)-4,4-dimethylcyclohexen-1-yl]methyl]piperazin-1-yl]-2-(1H-pyrrolo[2,3-b]pyridin-5-yloxy)phenyl]sulfonylthieno[2,3-b]pyridine-4-carboxamide]",7.00 to 8.00
3,"CC1(C)CCC(CN2CCN(c3ccc(S(=O)(=O)NC(=O)c4ccc(NCC5CCOCC5)c([N+](=O)[O-])c4)c(Oc4cnc5[nH]ccc5c4)c3)CC2)=C(c2ccc(Cl)cc2)C1 [Example 100, N-[4-[4-[[2-(4-chlorophenyl)-4,4-dimethylcyclohexen-1-yl]methyl]piperazin-1-yl]-2-(1H-pyrrolo[2,3-b]pyridin-5-yloxy)phenyl]sulfonyl-3-nitro-4-(oxan-4-ylmethylamino)benzamide]",> 8.00
4,"CC1(C)CCC(CN2CCN(c3ccc(S(=O)(=O)NC(=O)c4ccc(COc5ccc(Cl)cc5)c([N+](=O)[O-])c4)cc3)CC2)=C(c2ccc(Cl)cc2)C1 [Example 39, N-([4-[4-[[2-(4-chlorophenyl)-4,4-dimethylcyclohexen-1-yl]methyl]piperazin-1-yl]phenyl]sulfonyl)-4-((4-chlorophenoxy)methyl)-3-nitrobenzamide]",7.00 to 8.00
5,"CC1(C)CCC(CN2CCN(c3ccc(S(=O)(=O)NC(=O)c4ccc(Cl)c(C(F)(F)F)n4)c(Oc4cnc5[nH]ccc5c4)c3)CC2)=C(c2ccc(Cl)cc2)C1 [Example 71, 5-Chloro-N-[4-[4-[[2-(4-chlorophenyl)-4,4-dimethylcyclohexen-1-yl]methyl]piperazin-1-yl]-2-(1H-pyrrolo[2,3-b]pyridin-5-yloxy)phenyl]sulfonyl-6-(trifluoromethyl)pyridine-2-carboxamide]",6.00 to 7.00
6,"Cc1c(Cl)c(C(=O)NS(=O)(=O)c2ccc(N3CCN(CC4=C(c5ccc(Cl)cc5)CC(C)(C)CC4)CC3)cc2Oc2cnc3[nH]ccc3c2)cc([N+](=O)[O-])c1OCC1CCCO1 (centres unmarked) [Example 107, 2-chloro-N-[4-[4-[[2-(4-chlorophenyl)-4,4-dimethylcyclohexen-1-yl]methyl]piperazin-1-yl]-2-(1H-pyrrolo[2,3-b]pyridin-5-yloxy)phenyl]sulfonyl-3-methyl-5-nitro-4-(oxolan-2-ylmethoxy)benzamide]",> 8.00
7,"CC1(C)CCC(CN2CCN(c3ccc(S(=O)(=O)NC(=O)c4ccc(CNC5CCOCC5)c([N+](=O)[O-])c4)c(Oc4cnc5[nH]ccc5c4)c3)CC2)=C(c2ccc(Cl)cc2)C1 [Example 96, N-[4-[4-[[2-(4-chlorophenyl)-4,4-dimethylcyclohexen-1-yl]methyl]piperazin-1-yl]-2-(1H-pyrrolo[2,3-b]pyridin-5-yloxy)phenyl]sulfonyl-3-nitro-4-[(oxan-4-ylamino)methyl]benzamide]",7.00 to 8.00
8,"CNc1c([N+](=O)[O-])cc(C(=O)NS(=O)(=O)c2ccc(N3CCN(CC4=C(c5ccc(Cl)cc5)CC(C)(C)CC4)CC3)cc2Oc2cnc3[nH]ccc3c2)c(Cl)c1C [Example 98, 2-chloro-N-[4-[4-[[2-(4-chlorophenyl)-4,4-dimethylcyclohexen-1-yl]methyl]piperazin-1-yl]-2-(1H-pyrrolo[2,3-b]pyridin-5-yloxy)phenyl]sulfonyl-3-methyl-4-(methylamino)-5-nitrobenzamide]",7.00 to 8.00
9,"CC1(C)CCC(CN2CCN(c3ccc(S(=O)(=O)NC(=O)c4cccc([N+](=O)[O-])c4)cc3)CC2)=C(c2ccc(Cl)cc2)C1 [Example 32, N-([4-[4-[[2-(4-chlorophenyl)-4,4-dimethylcyclohexen-1-yl]methyl]piperazin-1-yl]phenyl]sulfonyl)-3-nitrobenzamide]",< 6.00
10,"Cc1c(Cl)c(C(=O)NS(=O)(=O)c2ccc(N3CCN(CC4=C(c5ccc(Cl)cc5)CC(C)(C)CC4)CC3)cc2Oc2cnc3[nH]ccc3c2)cc([N+](=O)[O-])c1OCc1ccc(Cl)cc1 [Example 88, 2-Chloro-N-[4-[4-[[2-(4-chlorophenyl)-4,4-dimethylcyclohexen-1-yl]methyl]piperazin-1-yl]-2-(1H-pyrrolo[2,3-b]pyridin-5-yloxy)phenyl]sulfonyl-4-[(4-chlorophenyl)methoxy]-3-methyl-5-nitrobenzamide]",> 8.00
